Experimental data published in PubChem BioAssay (NCI).
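Method: 48-hour compound exposure of cells in 96-well plates, five concentrations, linear interpolation of endpoints. Definition used: TGI = concentration required for complete inhibition of growth.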

How the values were obtained:
Assay in all cases: DTP human tumour cell line panel, 48 h
[1] = test system: CAKI-1 renal
[2] = test system: HT29 colon
[3] = test system: MOLT-4 leukemia
[4] = test system: UACC-257 melanoma
[5] = test system: MALME-3M melanoma
[6] = test system: HCC-2998 colon
[7] = test system: SNB-75 CNS
[8] = test system: OVCAR-4 ovarian
[9] = test system: SF-268 CNS
[10] = test system: LOX IMVI melanoma
[11] = test system: OVCAR-8 ovarian
[12] = test system: HL-60(TB) leukemia
[13] = test system: COLO 205 colon
[14] = test system: SR leukemia
[15] = test system: SF-539 CNS
[16] = test system: KM20L2 colon
[17] = test system: SK-OV-3 ovarian
[18] = test system: RXF 393 renal
[19] = test system: OVCAR-3 ovarian

Row | SMILES | TGI [1] [µM] | TGI [2] [µM] | TGI [3] [µM] | TGI [4] [µM] | TGI [5] [µM] | TGI [6] [µM] | TGI [7] [µM] | TGI [8] [µM] | TGI [9] [µM] | TGI [10] [µM] | TGI [11] [µM] | TGI [12] [µM] | TGI [13] [µM] | TGI [14] [µM] | TGI [15] [µM] | TGI [16] [µM] | TGI [17] [µM] | TGI [18] [µM] | TGI [19] [µM]
1 | COc1cc(C2=NN(C)C(c3ccc([N+](=O)[O-])o3)C2)cc(OC)c1OC (stereo not given) | > 100 | > 100 | > 100 | > 100 | > 100 | > 100 | > 100 | > 100 | > 100 | > 100 | > 100 | > 100 | > 100 | 38.6 | > 100 | > 100 | > 100 |  | 
2 | CC(=O)c1cccc(NC(=O)/C(=N\NC(C)(C)C)c2c(O)c3ccccc3oc2=O)c1 | > 100 | > 100 | > 100 | > 100 | > 100 | > 100 | > 100 | > 100 | > 100 | > 100 | > 100 | > 100 | > 100 | > 100 | > 100 | > 100 | > 100 | > 100 | > 100
3 | C=CCCC(OCOCCOC)c1cc(C)c(O[Si](C)(C)C(C)(C)C)c(C)c1 (stereo not given) |  |  | 19.4 | 26.6 | 41.4 | 27.5 | 35.6 |  | 34.1 | 27.6 | 39.8 | 19.5 | 32.9 |  | 38.6 | 29 | 55.1 | 27.4 | 27.7
4 | CCN1CCC(O)(c2ccc(C)cc2)C(C(=O)c2ccc(C)cc2)C1 (stereo not given) | 31.3 | 36.9 | > 71.5 | 36.6 | 35.1 | > 100 | > 100 | 50.1 | > 71.8 | > 61.2 | 49.9 | 47.7 | 48.8 | 50.9 | > 59.1 | 17.7 | > 100 |  | 40.1
5 | COc1ccc2c(c1)c(=O)c1ccccc1n2/C=C/C(=O)O | > 100 | > 100 | > 100 | > 100 | > 100 | > 100 | > 100 | > 100 | > 100 | > 65.6 | > 100 | > 66.6 | > 100 | > 57.4 | > 100 | > 100 | > 100 | > 100 | > 100
6 | CNC(=O)CN(CC(=O)NC)C(=O)NC | > 100 | > 100 | > 100 | > 100 | > 100 | > 100 | > 100 | > 100 | > 100 | > 100 | > 100 | > 100 | > 100 | > 100 | > 100 | > 100 | > 100 | > 100 | > 100
7 | O=C1CCCCC1CN1CCCC1 (stereo not given) |  | > 100 | > 100 | > 100 |  | > 100 | > 100 | > 100 | > 100 | > 100 | > 100 |  | > 100 | > 100 |  | > 100 | > 100 |  | > 100
8 | CC1=NN(c2ccccc2)C(=O)C1=C1SCCS1 | > 100 | > 100 | > 100 | > 100 | > 100 | > 100 | > 100 | > 100 | > 100 | > 63.4 | > 100 | > 58.9 | > 56.8 | > 54.4 | > 100 | > 100 | > 100 | > 65.4 | > 100
